Laboratory results as given in patent US8383647B2, “Quinoline derivative” (Takeda Pharmaceutical Company Limited, priority 2009, dated 2013).
Where a name gives a salt, the structure may show the parent alone.

Key:
[1] = target: rat SLC-1 (Rattus norvegicus, UniProt P97639); assay: MCH receptor antagonistic activity (inhibitory activity, Experimental Example 1); type: biochemical
[2] = target: human SLC-1 (Homo sapiens, UniProt Q99705); assay: as above; type: biochemical
Sequence of human SLC-1 (Q99705 whole entry): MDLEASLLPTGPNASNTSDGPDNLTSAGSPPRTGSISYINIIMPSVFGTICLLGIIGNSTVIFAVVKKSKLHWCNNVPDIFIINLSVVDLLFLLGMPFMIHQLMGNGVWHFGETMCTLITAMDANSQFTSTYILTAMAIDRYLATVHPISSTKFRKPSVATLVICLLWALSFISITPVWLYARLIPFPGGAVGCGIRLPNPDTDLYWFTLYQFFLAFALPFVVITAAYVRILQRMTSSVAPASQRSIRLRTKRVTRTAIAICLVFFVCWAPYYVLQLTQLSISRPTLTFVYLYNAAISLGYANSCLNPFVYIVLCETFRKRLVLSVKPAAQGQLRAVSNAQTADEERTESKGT

Sequence of rat SLC-1 (P97639 whole entry): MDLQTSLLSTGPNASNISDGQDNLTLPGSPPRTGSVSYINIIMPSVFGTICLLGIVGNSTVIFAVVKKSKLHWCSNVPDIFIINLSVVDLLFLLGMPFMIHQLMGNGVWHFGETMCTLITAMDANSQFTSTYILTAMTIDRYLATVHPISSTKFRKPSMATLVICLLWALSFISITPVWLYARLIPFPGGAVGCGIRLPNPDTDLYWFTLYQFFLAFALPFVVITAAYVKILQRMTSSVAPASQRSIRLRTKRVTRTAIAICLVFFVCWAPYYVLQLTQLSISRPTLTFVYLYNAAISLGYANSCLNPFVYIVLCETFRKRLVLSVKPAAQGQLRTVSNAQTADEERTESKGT

Compound | melting point | IC50 [1] | IC50 [2]
Cc1c(NC(=O)c2ccc(OC[C@@H]3CCCO3)cc2)ccc2cc(CNCC3(O)CCCCC3)cnc12 (as salt: hydrochloride) [Example 41, N-[3-({[(1-hydroxycyclohexyl)methyl]amino}methyl)-8-methylquinolin-7-yl]-4-[(2S)-tetrahydrofuran-2-ylmethoxy]benzamide dihydrochloride] | 242 to 244 °C |  | 
Cc1c(NC(=O)c2ccc(OCC3CCCO3)cc2)ccc2cc(CN[C@H]3CCCC[C@@H]3O)cnc12 (stereo partly drawn) [Example 3, N-[3-({[(1S,2S)-2-hydroxycyclohexyl]amino}methyl)-8-methylquinolin-7-yl]-4-(tetrahydrofuran-2-ylmethoxy)benzamide] | 197 °C |  | 
Cc1c(NC(=O)c2ccc(OC[C@@H]3CCCO3)cc2)ccc2cc(CNC[C@H]3CCCO3)cnc12 [Example 27, N-[8-methyl-3-({[(2R)-tetrahydrofuran-2-ylmethyl]amino}methyl)quinolin-7-yl]-4-[(2S)-tetrahydrofuran-2-ylmethoxy]benzamide] | 92 to 94 °C | 7.8 nM | 6.3 nM
Cc1c(NC(=O)c2ccc(OC[C@@H]3CCCO3)cc2)ccc2cc(CNC[C@@H]3CCCO3)cnc12 [Example 29, N-[8-methyl-3-({[(2S)-tetrahydrofuran-2-ylmethyl]amino}methyl)quinolin-7-yl]-4-[(2S)-tetrahydrofuran-2-ylmethoxy]benzamide] | 93 to 94 °C | 4.6 nM | 3.2 nM
Cc1c(NC(=O)c2ccc(OC[C@@H]3CCCO3)cc2)ccc2cc(CNCC3CCOCC3)cnc12 [Example 32, N-(8-methyl-3-{[(tetrahydro-2H-pyran-4-ylmethyl)amino]methyl}quinolin-7-yl)-4-[(2S)-tetrahydrofuran-2-ylmethoxy]benzamide] | 92 to 94 °C | 6.4 nM | 6 nM
Cc1c(NC(=O)c2ccc(OC[C@@H]3CCCO3)cc2)ccc2cc(CNCC3(C)COC3)cnc12 [Example 34, N-[8-methyl-3-({[(3-methyloxetan-3-yl)methyl]amino}methyl)quinolin-7-yl]-4-[(2S)-tetrahydrofuran-2-ylmethoxy]benzamide] | 117 to 119 °C | 6.5 nM | 5.5 nM
Cc1c(NC(=O)c2ccc(OC[C@@H]3CCCO3)cc2)ccc2cc(CNC3CCCC3)cnc12 [Example 36, N-{3-[(cyclopentylamino)methyl]-8-methylquinolin-7-yl}-4-[(2S)-tetrahydrofuran-2-ylmethoxy]benzamide] | 152 to 153 °C | 3 nM | 1.7 nM
Cc1c(NC(=O)c2ccc(OC[C@@H]3CCCO3)cc2)ccc2cc(CNCC3CC3)cnc12 [Example 37, N-(3-{[(cyclopropylmethyl)amino]methyl}-8-methylquinolin-7-yl)-4-[(2S)-tetrahydrofuran-2-ylmethoxy]benzamide] | 156 to 158 °C | 4.1 nM | 3 nM
Cc1c(NC(=O)c2ccc(OC[C@H]3CCCO3)cc2)ccc2cc(CN[C@H]3CC[C@H](O)CC3)cnc12 [Example 40, N-(3-{[(trans-4-hydroxycyclohexyl)amino]methyl}-8-methylquinolin-7-yl)-4-[(2R)-tetrahydrofuran-2-ylmethoxy]benzamide] | 182 to 183 °C | 13 nM | 7.7 nM
Cc1c(NC(=O)c2ccc(OC[C@@H]3CCCO3)cc2)ccc2cc(CNCC3(O)CCCCC3)cnc12 [Example 41, N-[3-({[(1-hydroxycyclohexyl)methyl]amino}methyl)-8-methylquinolin-7-yl]-4-[(2S)-tetrahydrofuran-2-ylmethoxy]benzamide dihydrochloride] |  | 1.6 nM | 1.5 nM
Cc1c(NC(=O)c2ccc(OC[C@@H]3CCCO3)cc2)ccc2cc(CN[C@@H]3CCCC[C@H]3O)cnc12 [Example 46, N-[3-({[(1R,2R)-2-hydroxycyclohexyl]amino}methyl)-8-methylquinolin-7-yl]-4-[(2S)-tetrahydrofuran-2-ylmethoxy]benzamide] | 142 to 143 °C | 6.5 nM | 4.5 nM
Cc1c(NC(=O)c2ccc(OC[C@H]3CCCO3)cc2)ccc2cc(CN[C@H]3CC[C@](C)(O)CC3)cnc12 [Example 51, N-(3-{[(trans-4-hydroxy-4-methylcyclohexyl)amino]methyl}-8-methylquinolin-7-yl)-4-[(2R)-tetrahydrofuran-2-ylmethoxy]benzamide] |  | 5.3 nM | 4.1 nM
Cc1c(NC(=O)c2ccc(OC[C@H]3CCCO3)cc2)ccc2cc(CN[C@H]3CC[C@@](C)(O)CC3)cnc12 [Example 53, N-(3-{[(cis-4-hydroxy-4-methylcyclohexyl)amino]methyl}-8-methylquinolin-7-yl)-4-[(2R)-tetrahydrofuran-2-ylmethoxy]benzamide] | 163 to 164 °C |  | 
Cc1c(NC(=O)c2ccc(OCC3CCOC3)cc2)ccc2cc(CN3CCC(C)(O)CC3)cnc12 (stereo not shown) [Example 66, N-{3-[(4-hydroxy-4-methylpiperidin-1-yl)methyl]-8-methylquinolin-7-yl}-4-(tetrahydrofuran-3-ylmethoxy)benzamide] | 160 to 162 °C |  | 

Second part, the molecule after the results:

melting point | IC50 [1] | IC50 [2] | Compound
235 to 237 °C |  |  | COC(C)(C)CNCc1cnc2c(C)c(NC(=O)c3ccc(OC[C@@H]4CCCO4)cc3)ccc2c1 (as salt: hydrochloride) [Example 30, N-(3-{[(2-methoxy-2-methylpropyl)amino]methyl}-8-methylquinolin-7-yl)-4-[(2S)-tetrahydrofuran-2-ylmethoxy]benzamide dihydrochloride]
 | 2.1 nM | 2.2 nM | Cc1c(NC(=O)c2ccc(OCC3CCOC3)cc2)ccc2cc(CNCC(C)C)cnc12 (single isomer, unassigned) [Example 61, N-(8-methyl-3-{[(2-methylpropyl)amino]methyl}quinolin-7-yl)-4-(tetrahydrofuran-3-ylmethoxy)benzamide]
138 °C |  |  | Cc1c(NC(=O)c2ccc(OCC3CCCO3)cc2)ccc2cc(CNCC(C)(C)O)cnc12 (stereo not shown) [Example 1, N-(3-{[(2-hydroxy-2-methylpropyl)amino]methyl}-8-methylquinolin-7-yl)-4-(tetrahydrofuran-2-ylmethoxy)benzamide]
106 °C |  |  | Cc1c(NC(=O)c2ccc(OCC3CCOC3)cc2)ccc2cc(CNC(C)C)cnc12 (stereo not shown) [Example 7, N-(8-methyl-3-{[(1-methylethyl)amino]methyl}quinolin-7-yl)-4-(tetrahydrofuran-3-ylmethoxy)benzamide]
148 to 149 °C | 3.2 nM | 2.8 nM | Cc1c(NC(=O)c2ccc(OCC3CCOC3)cc2)ccc2cc(CNC3CCCC3)cnc12 (stereo not shown) [Example 16, N-{3-[(cyclopentylamino)methyl]-8-methylquinolin-7-yl}-4-(tetrahydrofuran-3-ylmethoxy)benzamide]
110 to 111 °C | 3.5 nM | 3.4 nM | Cc1c(NC(=O)c2ccc(OC[C@H]3CCCO3)cc2)ccc2cc(CNCC(C)(C)C)cnc12 [Example 25, N-(3-{[(2,2-dimethylpropyl)amino]methyl}-8-methylquinolin-7-yl)-4-[(2R)-tetrahydrofuran-2-ylmethoxy]benzamide]
 | 11 nM | 8.4 nM | COC(C)(C)CNCc1cnc2c(C)c(NC(=O)c3ccc(OC[C@@H]4CCCO4)cc3)ccc2c1 [Example 30, N-(3-{[(2-methoxy-2-methylpropyl)amino]methyl}-8-methylquinolin-7-yl)-4-[(2S)-tetrahydrofuran-2-ylmethoxy]benzamide dihydrochloride]
149 to 151 °C | 17 nM | 7.1 nM | CCNCc1cnc2c(C)c(NC(=O)c3ccc(OC[C@@H]4CCCO4)cc3)ccc2c1 [Example 35, N-{3-[(ethylamino)methyl]-8-methylquinolin-7-yl}-4-[(2S)-tetrahydrofuran-2-ylmethoxy]benzamide]
142 to 143 °C | 1.7 nM | 1.5 nM | Cc1c(NC(=O)c2ccc(OC[C@@H]3CCCO3)cc2)ccc2cc(CNCC(C)C)cnc12 [Example 38, N-(8-methyl-3-{[(2-methylpropyl)amino]methyl}quinolin-7-yl)-4-[(2S)-tetrahydrofuran-2-ylmethoxy]benzamide]
114 to 116 °C | 2 nM | 1.8 nM | Cc1c(NC(=O)c2ccc(OC[C@@H]3CCCO3)cc2)ccc2cc(CNCC(C)(C)C)cnc12 [Example 39, N-(3-{[(2,2-dimethylpropyl)amino]methyl}-8-methylquinolin-7-yl)-4-[(2S)-tetrahydrofuran-2-ylmethoxy]benzamide]
121 to 122 °C | 5.8 nM | 3.1 nM | CCCNCc1cnc2c(C)c(NC(=O)c3ccc(OC[C@@H]4CCCO4)cc3)ccc2c1 [Example 45, N-{8-methyl-3-[(propylamino)methyl]quinolin-7-yl}-4-[(2S)-tetrahydrofuran-2-ylmethoxy]benzamide]
132 °C |  |  | Cc1c(NC(=O)c2ccc(OCC3CCOC3)cc2)ccc2cc(CNCC(C)C)cnc12 (stereo not shown) [Example 59, N-(8-methyl-3-{[(2-methylpropyl)amino]methyl}quinolin-7-yl)-4-(tetrahydrofuran-3-ylmethoxy)benzamide]
130 to 131 °C |  |  | Cc1c(NC(=O)c2ccc(OCC3CCOC3)cc2)ccc2cc(CNCC(C)C)cnc12 (stereo not shown) [Example 60, N-(8-methyl-3-{[(2-methylpropyl)amino]methyl}quinolin-7-yl)-4-(tetrahydrofuran-3-ylmethoxy)benzamide]
98 to 101 °C |  |  | Cc1c(NC(=O)c2ccc(OCC3CCOC3)cc2)ccc2cc(CN[C@H]3CC[C@](C)(O)CC3)cnc12 (stereo partly drawn) [Example 64, N-(3-{[(trans-4-hydroxy-4-methylcyclohexyl)amino]methyl}-8-methylquinolin-7-yl)-4-(tetrahydrofuran-3-ylmethoxy)benzamide]
137 °C |  |  | COC(C)(C)CNCc1cnc2c(C)c(NC(=O)c3ccc(OCC4CCOC4)cc3)ccc2c1 (stereo not shown) [Example 65, N-(3-{[(2-methoxy-2-methylpropyl)amino]methyl}-8-methylquinolin-7-yl)-4-(tetrahydrofuran-3-ylmethoxy)benzamide]
